Here are results for one compound from patent US8785637B2, “Carboxamide-substituted dyes for analytical applications” (ATTO-TEC GmbH, priority 2002, dated 2014).

This data set in a line: Solubility in water. The data set is classed as physicochemical. As to conditions: sugar residue as R5 or/and R6.

For `CCN(CC)c1ccc2c(-c3ccccc3C(=O)N(C)CC(O)C(O)C(O)C(O)CO)c3ccc(=[N+](CC)CC)cc-3oc2c1` (stereo not shown) [Compound 51], the solubility in water entry is given as “high solubility in water”.
